Measurements as given in US6436913B1, “Use of estramustine phosphate in the treatment of bone metastasis” (Pharmacia & Upjohn Company, priority 2000, dated 2002).

Key:
clinical = conditions: male, human, serum, oral, 3200 mg
Method: (§1) The first group of six patients were given 3200 mg daily of clodronate only for four days. On the fifth day the AUC0-24h for the drug was calculated from serum concentrations of repeated blood samples. On the sixth day, 560 mg estramustine phosphate was add per oral to the clodronate treatment for the following four days. On day ten, the AUC0-24h for both drugs was calculated.
(§2) The second group of six patients were give orally 560 mg daily of estramustine phosphate only for four days. On the fifth day the AUC0-24h for the drug was calculated from serum concentrations of repeated blood samples. On the sixth day, 3200 mg clodronate was added to the estramustine phosphate treatment for the following four days. On day ten, the AUC0-24h for both drugs was calculated. The clodronate was provided as 400 mg capsules, and the estramustine phosphate used was estracyt in 140 mg capsules.
(§3) The method used in the analysis of the serum estramustine phosphate concentrations measures estrone and is insensitive to any metabolites. The estradiol-related metabolites (estramustine and estradiol) were not analyized in connection with the bioanalysis.

[1] = Mutual bioavailability of estramustine phosphate and clodronate: serum AUC0-24h and Cmax in patients; conditions: for AUC0-24h and Cmax, drug alone versus concomitantly with the other drug / Bioavailability, effect of adding the other drug: patients, clodronate 3200 mg and estramustine phosphate 560 mg daily; for AUC0-24h Estracyt: serum, mean
Method: as §1, §2, §3

mouse calvaria = experiment: Bone resorption assay, organ culture with 45Ca-prelabeled mouse calvaria (PTH-stimulated 45Ca release); assay type: cell-based; conditions: for Resorption / PTH-stimulated 45Ca release, result in words / Resorption, result in words: present only during preincubation; for Resorption / PTH-stimulated 45Ca release, result in words: then washed away; for Bone resorption (45Ca release), result in words: in vitro mouse calvaria, compound present during culture
Method: This example used the organ culture technique with mouse calvaria.
The organ culture technique was used with ^45Ca-prelabeled mouse calvaria. The method has been described by Lerner (1987) and Ljunggren et al. (1991). Newborn mice were injected subcutaneously with ^45CaCl (1.5 μCi/animal). After four days their calvaria were dissected, split into quarters and preincubated in phenol red free CMRL 1066 medium supplemented with 0.1% bovine serum albumin and 50 μg/ml gentamicin for 24 hours at 37° C. in a humidified atmosphere of 5% CO2 in air in the presence of indomethacin (1 μmol/l) and 10 nmol/l bovine parathyroid hormone (PTH). After washing the bone pieces, the medium was changed and cultures incubated for three more days in the same medium but without indomethacin in the presence or absence of estramustine phosphate or clodronate. Resorption was measured by assaying the ^45Ca liberated into the medium using a standard technique for liquid scintillation counting. Total ^45Ca was determined after hydrolysing the calvaria in 6 mol/l HCI overnight. Bone resorption was studied in various concentrations of estramustine phosphate and the effect of estramusine phosphate present only during the preincubation stage was checked in order to study its cytotoxcity.
Results are expressed as mean±SEM, n=5 or 10. Inhibition percentage was calculated as follows
Inhibition %=^45Ca released control bones (%)−^45Ca released from sample bones (%) ^45Ca released control bones*100

[2] = Experiment 2 (compound present only during preincubation), 100 μmol/l, mean±SEM

## O=P(O)(O)C(Cl)(Cl)P(=O)(O)O [Clodronate, Disodium clodronate]
clinical
  AUC(0-t): 19.3 µg·h/mL
  Cmax: 1.58 µg/mL
[1]
  AUC0-24h and Cmax, drug alone versus concomitantly with the other drug: did not differ significantly
  Bioavailability, effect of adding the other drug: no effect
Mouse calvaria; Mus musculus, Experiment 1, 0.1 μmol/l, mean±SEM, n=5 or 10
  inhibition at 0.1 µM: 0.9 ± 1.2%
Mouse calvaria; Mus musculus, Experiment 1, 1 μmol/l, mean±SEM, n=5 or 10
  inhibition at 1 µM: 3.5 ± 4.2%
Mouse calvaria; Mus musculus, Experiment 1, 10 μmol/l, mean±SEM, n=5 or 10
  inhibition at 10 µM: 28.3 ± 3.8%
Mouse calvaria; Mus musculus, Experiment 1, 100 μmol/l, mean±SEM, n=5 or 10
  inhibition at 100 µM: 51.4 ± 1.9%
Mouse calvaria; Mus musculus, Experiment 1, 1000 μmol/l (precipitate noted for estramustine phosphate), mean±SEM
  inhibition at 1000 µM: 25.7 ± 6.6%
Mouse calvaria; Mus musculus, Experiment 2 (compound present only during preincubation), 100 μmol/l, mean±SEM
  inhibition at 100 µM: 55.9 ± 0.5%
Mouse calvaria
  Resorption / PTH-stimulated 45Ca release, result in words: also inhibits resorption

## C[C@]12CC[C@@H]3c4ccc(OC(=O)N(CCCl)CCCl)cc4CC[C@H]3[C@@H]1CC[C@@H]2OP(=O)([O-])[O-].[Na+].[Na+] [Estramustine phosphate, Estramustine phosphate sodium]
[1]; Estracyt 560 mg daily concomitantly with Clodronate 3200 mg
  AUC0-24h Estracyt: 84.74 µM·h
[1]; Estracyt only, 560 mg daily orally
  AUC0-24h Estracyt: 47.38 µM·h
[1]
  AUC0-24h and Cmax, drug alone versus concomitantly with the other drug: differed statistically
  Bioavailability, effect of adding the other drug: almost doubled
Mouse calvaria; Experiment 1, 0.01 μmol/l, mean±SEM
  45Ca-release (%): 51.5 ± 3.0%
Mouse calvaria; Experiment 1, 0.01 μmol/l, mean±SEM, n=5 or 10
  Inhibition %: 5.5 ± 5.5%
Mouse calvaria; Experiment 1, 0.1 μmol/l, mean±SEM
  45Ca-release (%): 50.6 ± 1.6%
Mouse calvaria; Experiment 1, 0.1 μmol/l, mean±SEM, n=5 or 10
  Inhibition %: 7.2 ± 2.9%
Mouse calvaria; Experiment 1, 1 μmol/l, mean±SEM
  45Ca-release (%): 55.4 ± 2.9%
Mouse calvaria; Experiment 1, 1 μmol/l, mean±SEM, n=5 or 10
  Inhibition %: 2.0 ± 5.4%
Mouse calvaria; Experiment 1, 10 μmol/l, mean±SEM
  45Ca-release (%): 34.7 ± 3.1%
Mouse calvaria; Experiment 1, 10 μmol/l, mean±SEM, n=5 or 10
  Inhibition %: 34.7 ± 3.1%
Mouse calvaria; Experiment 1, 100 μmol/l, mean±SEM
  45Ca-release (%): 16.7 ± 0.2%
Mouse calvaria; Experiment 1, 100 μmol/l, mean±SEM, n=5 or 10
  Inhibition %: 65.3 ± 2.3%
Mouse calvaria; Experiment 1, 1000 μmol/l (precipitate noted for estramustine phosphate), mean±SEM
  Inhibition %: 55.9 ± 0.6%
Mouse calvaria; Experiment 1, 1000 μmol/l (precipitate), mean±SEM
  45Ca-release (%): 24.0 ± 2.2%
Mouse calvaria; Experiment 2 (compound present only during preincubation), 10 μmol/l, mean±SEM
  Inhibition %: −17.9 ± 8.7%
Mouse calvaria; [2]
  45Ca-release (%): 11.9 ± 0.6%
  Inhibition %: 70.4 ± 1.4%
Mouse calvaria
  Bone resorption (45Ca release), result in words: inhibited bone resorption in this in vitro model concentration-dependently and about as effectively as clodronate
  Resorption / PTH-stimulated 45Ca release, result in words: PTH could not stimulate ^45Ca release from bones
Mouse calvaria; listed as estramustine phosphate sodium
  Bone resorption (45Ca release), result in words: dose-dependently inhibited
Mouse calvaria; 10 μmol/l
  Resorption, result in words: slightly increased
Mouse calvaria; 100 μmol/l
  Resorption, result in words: strongly inhibited
